Source: patent publication US4100346A, “Certain 7(o-amino-methyl- or methylaminomethylphenyl- or cyclohexadienyl- or thienylacetamide)-3[1-carboxymethyl-(or ethyl- or propyl-)-tetrazol-5-ylthiomethyl]-3-cephem-4-carboxylic acids” (Bristol-Myers Company, priority 1976, dated 1978)
Converted amounts (≈) assume the structure as drawn. Counter-ions that a name gives are not always drawn. Blank lines part the entries; values can stand above or below the compound they belong to.

What was measured:
[1] = Solubility in water, buffer or urine
physchem = details: solid
D. pneumoniae = assay: MIC by Tube Dilution Technique in Nutrient Broth (Example 9 table); format: cell-based; details: Streptococcus pneumoniae; Dp-4 D. pneumoniae A9585
From the text: (§1) MIC (mcg./ml.) by Tube Dilution Technique in Nutrient Broth.

E. cloacae = assay: as above; format: cell-based; details: Enterobacter cloacae; El-1 E. cloacae A9656
From the text: as §1

E. coli [2] = assay: as above; format: cell-based; details: Escherichia coli
From the text: as §1

K. pneumoniae [3] = assay: as above; format: cell-based; details: Klebsiella pneumoniae
From the text: as §1

P. aeruginosa = assay: as above; format: cell-based; details: Pseudomonas aeruginosa; P. aeruginosa A9843
From the text: as §1

P. mirabilis = assay: as above; format: cell-based; details: Proteus mirabilis; Pm-2 P. mirabilis A9900
From the text: as §1

P. morganii = assay: as above; format: cell-based; details: Morganella morganii; Pg-8 P. morganii A15153
From the text: as §1

S. aureus [4] = assay: as above; format: cell-based; details: Staphylococcus aureus
From the text: as §1

S. enteritidis = assay: as above; format: cell-based; details: Salmonella enterica; Se-1 S. enteritidis A9531
From the text: as §1

S. marcescens = assay: as above; format: cell-based; details: Serratia marcescens; Sm-1 S. marcescens A20019
From the text: as §1

S. pyogenes = assay: as above; format: cell-based; details: Streptococcus pyogenes; Sp-3 S. pyogenes A9604
From the text: as §1

Str. pneumoniae = assay: M.I.C. by Tube Dilution in Nutrient Broth (Examples 1 and 2); format: cell-based; details: Streptococcus pneumoniae; Str. pneumoniae A9585 (10^-3 dilution of overnight broth culture); 45% Antibiotic Assay Broth + 50% Nutrient Broth + 5% serum
From the text: (§2) *45% Antibiotic Assay Broth + 50% Nutrient Broth + 5% serum
(§3) **Dilution of overnight broth culture

Str. pyogenes = assay: as above; format: cell-based; details: Streptococcus pyogenes; Str. pyogenes A9604 (10^-3); 45% Antibiotic Assay Broth + 50% Nutrient Broth + 5% serum
From the text: as §2, §3

E. coli [5] = assay: as above; format: cell-based; details: Escherichia coli
From the text: (§4) | **Dilution of overnight broth culture

Ent. cloacae = assay: as above; format: cell-based; details: Enterobacter cloacae
From the text: as §4

K. pneumoniae [6] = assay: as above; format: cell-based; details: Klebsiella pneumoniae
From the text: as §4

Pr. mirabilis = assay: as above; format: cell-based; details: Proteus mirabilis; Pr. mirabilis A9900 (10^-4)
From the text: as §4

Pr. morganii = assay: as above; format: cell-based; details: Morganella morganii; Pr. morganii A15153 (10^-4)
From the text: as §4

Ps. aeruginosa = assay: as above; format: cell-based; details: Pseudomonas aeruginosa; read-out: M.I.C.
From the text: as §4

S. aureus [7] = assay: as above; format: cell-based; details: Staphylococcus aureus
From the text: as §4

Sal. enteritidis = assay: as above; format: cell-based; details: Salmonella enterica; Sal. enteritidis A9531 (10 ^4)
From the text: as §4

Ser. marcescens = assay: as above; format: cell-based; details: Serratia marcescens; Ser. marcescens A20019 (10^-4)
From the text: as §4

[8] = Solid stability at elevated temperatures
[9] = Stability of aqueous solutions at room temperature (loss of activity)
[10] = Blood level in mice after intramuscular injection (Example 7); format: in vivo; details: mouse, im, intramuscularly, 10 mg./kg. of body weight, at 15 minutes
Method: The IR and NMR were consistent with the title product, but indicated about 20% impurities, primarily starting material. When this compound was administered intramuscularly by injection at a dose of 10 mg./kg. of body weight in mice, a blood level of […]. was obtained at 15 minutes.

lowest pH able to dissolve 150 mg./ml. ([1]; room temperature): 10.3 | solubility ([1]; solubility, in both buffered aqueous media and in dog urine at room temperature): 1 to 3 mg/mL (≈ 2100 to 6310 µM)
Structure (SMILES): Cn1nnnc1SCC1=C(C(=O)O)N2C(=O)[C@@H](NC(=O)Cc3ccccc3CN)[C@H]2SC1 [7-(o-aminomethylphenylacetamido)-3-(1-methyl-1,2,3,4-tetrazol-5-ylthiomethyl)-3-cephem-4-carboxylic acid]

Structure (SMILES): NCc1ccccc1CC(=O)N[C@@H]1C(=O)N2C(C(=O)O)=C(CSc3nnnn3CC(=O)O)CS[C@H]12 [BL-S786: L-Lysine Salt]
degraded at 730 h (physchem): < 10%

Structure (SMILES): Cn1nnnc1SCC1=C(C(=O)O)N2C(=O)[C@@H](NC(=O)[C@H](O)c3ccccc3)[C@H]2SC1 [Cefamandole]
MIC (D. pneumoniae): 0.08 µg/mL (≈ 0.173 µM) | MIC (E. cloacae): 50 µg/mL (≈ 108 µM) | MIC (E. coli [2]; Ec-1 E. coli NIHJ): 1.6 µg/mL (≈ 3.46 µM) | MIC (E. coli [2]; Ec-3 E. coli Juhl A15119): 0.8 µg/mL (≈ 1.73 µM) | MIC (E. coli [2]; Ec-58 E. coli A9675): 3.1 µg/mL (≈ 6.7 µM) | MIC (K. pneumoniae [3]; Kp-3 K. pneumoniae A9977): 0.8 µg/mL (≈ 1.73 µM) | MIC (K. pneumoniae [3]; Kp-4 K. pneumoniae A15130): 6.3 µg/mL (≈ 13.6 µM) | MIC (P. aeruginosa): > 100 µg/mL | MIC (P. mirabilis): 0.8 µg/mL (≈ 1.73 µM) | MIC (P. morganii): 3.1 µg/mL (≈ 6.7 µM) | MIC (S. aureus [4]; Sa-2 S. aureus +50% serum): 1.6 µg/mL (≈ 3.46 µM) | MIC (S. aureus [4]; Sa-2 S. aureus Smith A9537): 0.8 µg/mL (≈ 1.73 µM) | MIC (S. aureus [4]; Sa-11 S. aureus BX-1633 A9606): 1.6 µg/mL (≈ 3.46 µM) | MIC (S. aureus [4]; Sa-44 S. aureus A15097): 3.1 µg/mL (≈ 6.7 µM) | MIC (S. enteritidis): 0.4 µg/mL (≈ 0.865 µM) | MIC (S. marcescens): > 100 µg/mL | MIC (S. pyogenes): 0.08 µg/mL (≈ 0.173 µM)

Structure (SMILES): NCC1=C(CC(=O)N[C@@H]2C(=O)N3C(C(=O)O)=C(CSc4nnnn4CC(=O)O)CS[C@H]23)CC=CC1 [Example 2, 7-(2-Aminomethyl-1,4-cyclohexadienylacetamido)-3-(1-carboxymethyltetrazol-5-ylthiomethyl)-3-cephem-4-carboxylic acid]
MIC (Str. pneumoniae): 0.06 µg/mL | MIC (Str. pyogenes): 0.13 µg/mL | MIC (E. coli [5]; E. coli A9675 (10^-4)): 16 µg/mL (≈ 30.7 µM) | MIC (E. coli [5]; E. coli Juhl A15119 (10^-4)): 1.3 µg/mL (≈ 2.49 µM) | MIC (Ent. cloacae; Ent. cloacae A9657 (10^-4)): 0.3 µg/mL (≈ 0.575 µM) | MIC (Ent. cloacae; Ent. cloacae A9659 (10^-4)): 32 µg/mL (≈ 61.4 µM) | MIC (Ent. cloacae; Ent. cloacae A9656 (10^-4)): > 125 µg/mL | MIC (K. pneumoniae [6]; K. pneumoniae A9977 (10^-4)): 0.3 µg/mL (≈ 0.575 µM) | MIC (K. pneumoniae [6]; K. pneumoniae A15130 (10^-4)): 2 µg/mL (≈ 3.83 µM) | MIC (Pr. mirabilis): 0.3 µg/mL (≈ 0.575 µM) | MIC (Pr. morganii): 8 µg/mL (≈ 15.3 µM) | MIC (Ps. aeruginosa): > 125 µg/mL | MIC (S. aureus [7]; S. aureus BX1633 A9606 (10^-2)): 2.5 µg/mL (≈ 4.79 µM) | MIC (S. aureus [7]; S. aureus BX1633 A9606 (10^-3)): 1.3 µg/mL (≈ 2.49 µM) | MIC (S. aureus [7]; S. aureus Meth-Res A15097 (10^-3)): 4 µg/mL (≈ 7.67 µM) | MIC (S. aureus [7]; S. aureus Smith A9537 (10^-4)): 0.5 µg/mL (≈ 0.959 µM) | MIC (S. aureus [7]; S. aureus-50% serum A9537 (10^-4)): > 0.5 µg/mL | MIC (Sal. enteritidis): 0.16 µg/mL (≈ 0.307 µM) | MIC (Ser. marcescens): > 125 µg/mL

Structure (SMILES): NCc1ccccc1CC(=O)N[C@@H]1C(=O)N2C(C(=O)O)=C(CSc3nnnn3CC(=O)O)CS[C@H]12 [Example 3]
solubility ([1]; water, Solubility in water): > 500 mg/mL | relative stability of the solid at elevated temperatures [8]: not as stable at elevated temperatures | loss of activity in solution ([9]; 125.0 mg./ml. at pH 7.0, room temperature, at least 24 hours): no significant loss | Stability in water (time stable) ([9]; room temperature at 250 mg./ml.): at least 24 hours

concentration at 0.25 h [10]: 22300 µg/mL
Structure (SMILES): NCc1ccccc1CC(=O)N[C@@H]1C(=O)N2C(C(=O)O)=C(CSc3nnnn3CCC(=O)O)CS[C@H]12 [Example 7, 7-(2-aminomethylphenylacetamido)-3-(1-carboxyethyltetrazol-5-ylthiomethyl)-3-cephem-4-carboxylic acid]

Structure (SMILES): NCc1ccccc1CC(=O)N[C@@H]1C(=O)N2C(C(=O)O)=C(CSc3nnnn3CC(=O)O)CS[C@H]12 [Example 8, Monosodium BL-S786 Dihydrate]
Solubility in water ([1]; water, Dihydrate): > 400 mg/mL | Stability of 250,000 unit/ml. solution ([9]; 24 hours at room temperature): No loss

Structure (SMILES): CNCc1ccsc1CC(=O)N[C@@H]1C(=O)N2C(C(=O)O)=C(CSc3nnnn3CC(=O)O)CS[C@H]12 [Example 9, 7-(3-N-methylaminomethyl-2-thienylacetamido)-3-(1-carboxymethyltetrazol-5-ylthiomethyl)-3-cephem-4-carboxylic Acid]
MIC (D. pneumoniae): 0.08 µg/mL (≈ 0.148 µM) | MIC (E. cloacae): 50 µg/mL (≈ 92.7 µM) | MIC (E. coli [2]; Ec-1 E. coli NIHJ): 0.8 µg/mL (≈ 1.48 µM) | MIC (E. coli [2]; Ec-3 E. coli Juhl A15119): 0.8 µg/mL (≈ 1.48 µM) | MIC (E. coli [2]; Ec-58 E. coli A9675): 12.5 µg/mL (≈ 23.2 µM) | MIC (K. pneumoniae [3]; Kp-3 K. pneumoniae A9977): 0.2 µg/mL (≈ 0.371 µM) | MIC (K. pneumoniae [3]; Kp-4 K. pneumoniae A15130): 1.6 µg/mL (≈ 2.97 µM) | MIC (P. aeruginosa): > 100 µg/mL | MIC (P. mirabilis): 0.4 µg/mL (≈ 0.741 µM) | MIC (P. morganii): 12.5 µg/mL (≈ 23.2 µM) | MIC (S. aureus [4]; Sa-2 S. aureus +50% serum): 3.1 µg/mL (≈ 5.74 µM) | MIC (S. aureus [4]; Sa-2 S. aureus Smith A9537): 3.1 µg/mL (≈ 5.74 µM) | MIC (S. aureus [4]; Sa-11 S. aureus BX-1633 A9606): 6.3 µg/mL (≈ 11.7 µM) | MIC (S. aureus [4]; Sa-44 S. aureus A15097): 12.5 µg/mL (≈ 23.2 µM) | MIC (S. enteritidis): 0.2 µg/mL (≈ 0.371 µM) | MIC (S. marcescens): > 100 µg/mL | MIC (S. pyogenes): 0.08 µg/mL (≈ 0.148 µM)
